The record followed here is ChEMBL document CHEMBL3882388, “Pharmaceutical Compositions Comprising Beta-Lactam Antibiotic, Sulbactam and Beta-Lactamase Inhibitor” (2014).

The target of test [1] is Beta-lactamase (Acinetobacter baumannii) (UniProt Q8RLA6). The test can be described thus: Inhibition of beta-lactamase in extended-spectrum b-lactamase producing Acinetobacter baumannii S-8 assessed as potentiation of cefpirome-induced antibacterial activity by measuring cefpirome MIC at 4 to 8 ug/ml incubated for 16 to 20 hrs by CLSI method.
For test [2] the target is unchanged. The test can be described thus: Inhibition of beta-lactamase in extended-spectrum b-lactamase producing Acinetobacter baumannii S-3 assessed as potentiation of cefepime-induced antibacterial activity by measuring cefepime MIC at 4 to 8 ug/ml incubated for 16 to 20 hrs by CLSI method.
For test [3] the target is unchanged. Description: Inhibition of beta-lactamase in extended-spectrum b-lactamase producing Acinetobacter baumannii S-4 assessed as potentiation of cefpirome-induced antibacterial activity by measuring cefpirome MIC at 4 to 8 ug/ml incubated for 16 to 20 hrs by CLSI method.
The target is the same in test [4]. The test can be described thus: Inhibition of beta-lactamase in extended-spectrum b-lactamase producing Acinetobacter baumannii S-15 assessed as potentiation of cefpirome-induced antibacterial activity by measuring cefpirome MIC at 4 to 8 ug/ml incubated for 16 to 20 hrs by CLSI method.
For test [5] the target is unchanged. The test can be described thus: Inhibition of beta-lactamase in extended-spectrum b-lactamase producing Acinetobacter baumannii NCTC 13305 assessed as potentiation of cefpirome-induced antibacterial activity by measuring cefpirome MIC at 4 to 8 ug/ml incubated for 16 to 20 hrs by CLSI method.
The target is the same in test [6]. The test can be described thus: Inhibition of beta-lactamase in extended-spectrum b-lactamase producing Acinetobacter baumannii S-4 assessed as potentiation of cefepime-induced antibacterial activity by measuring cefepime MIC at 4 to 8 ug/ml incubated for 16 to 20 hrs by CLSI method.
Test [7] shares this target. The test can be described thus: Inhibition of beta-lactamase in extended-spectrum b-lactamase producing Acinetobacter baumannii NCTC 13301 assessed as potentiation of cefepime-induced antibacterial activity by measuring cefepime MIC at 4 to 8 ug/ml incubated for 16 to 20 hrs by CLSI method.
Test [8] has the same target. Description: Inhibition of beta-lactamase in extended-spectrum b-lactamase producing Acinetobacter baumannii NCTC 13304 assessed as potentiation of cefpirome-induced antibacterial activity by measuring cefpirome MIC at 4 to 8 ug/ml incubated for 16 to 20 hrs by CLSI method.
The target is the same in test [9]. Description: Inhibition of beta-lactamase in extended-spectrum b-lactamase producing Acinetobacter baumannii S-10 assessed as potentiation of cefepime-induced antibacterial activity by measuring cefepime MIC at 4 to 8 ug/ml incubated for 16 to 20 hrs by CLSI method.
Test [10] shares this target. The test can be described thus: Inhibition of beta-lactamase in extended-spectrum b-lactamase producing Acinetobacter baumannii S-10 assessed as potentiation of cefpirome-induced antibacterial activity by measuring cefpirome MIC at 4 to 8 ug/ml incubated for 16 to 20 hrs by CLSI method.
Test [11] has the same target. Description: Inhibition of beta-lactamase in extended-spectrum b-lactamase producing Acinetobacter baumannii S-8 assessed as potentiation of cefepime-induced antibacterial activity by measuring cefepime MIC at 4 to 8 ug/ml incubated for 16 to 20 hrs by CLSI method.
Test [12] has the same target. Description: Inhibition of beta-lactamase in extended-spectrum b-lactamase producing Acinetobacter baumannii S-3 assessed as potentiation of cefpirome-induced antibacterial activity by measuring cefpirome MIC at 4 to 8 ug/ml incubated for 16 to 20 hrs by CLSI method.
For test [13] the target is unchanged. The test can be described thus: Inhibition of beta-lactamase in extended-spectrum b-lactamase producing Acinetobacter baumannii NCTC 13301 assessed as potentiation of cefpirome-induced antibacterial activity by measuring cefpirome MIC at 4 to 8 ug/ml incubated for 16 to 20 hrs by CLSI method.
Test [14] has the same target. Description: Inhibition of beta-lactamase in extended-spectrum b-lactamase producing Acinetobacter baumannii NCTC 13305 assessed as potentiation of cefepime-induced antibacterial activity by measuring cefepime MIC at 4 to 8 ug/ml incubated for 16 to 20 hrs by CLSI method.
For test [15] the target is unchanged. Description: Inhibition of beta-lactamase in extended-spectrum b-lactamase producing Acinetobacter baumannii S-15 assessed as potentiation of cefepime-induced antibacterial activity by measuring cefepime MIC at 4 to 8 ug/ml incubated for 16 to 20 hrs by CLSI method.
The target is the same in test [16]. Description: Inhibition of beta-lactamase in extended-spectrum b-lactamase producing Acinetobacter baumannii NCTC 13304 assessed as potentiation of cefepime-induced antibacterial activity by measuring cefepime MIC at 4 to 8 ug/ml incubated for 16 to 20 hrs by CLSI method.

Beta-lactamase (Acinetobacter baumannii), sequence (Q8RLA6 as listed by the source): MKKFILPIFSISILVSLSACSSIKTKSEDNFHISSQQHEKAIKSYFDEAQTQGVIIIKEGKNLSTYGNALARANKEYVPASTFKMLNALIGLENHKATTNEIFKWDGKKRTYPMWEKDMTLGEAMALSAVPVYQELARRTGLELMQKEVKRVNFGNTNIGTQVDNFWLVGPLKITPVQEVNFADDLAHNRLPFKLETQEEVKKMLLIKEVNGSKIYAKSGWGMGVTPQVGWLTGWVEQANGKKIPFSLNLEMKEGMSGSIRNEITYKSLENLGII

For `CC1(C)[C@H](C(=O)O)N2C(=O)C[C@H]2S1(=O)=O`, the MIC in test [1] was 32 µg/mL; in [2] it was more than 32 µg/mL; in test [3], more than 32 µg/mL; in test [4], 32 µg/mL; in [5] it was 8 µg/mL; in test [6], more than 32 µg/mL. The MIC is more than 32 µg/mL in test [7]; 32 µg/mL in [8]; more than 32 µg/mL in test [9]; more than 32 µg/mL in [10]; 32 µg/mL in test [11]; more than 32 µg/mL in test [12]. Further, the MIC is more than 32 µg/mL in [13], 4 µg/mL in [14], more than 32 µg/mL in test [15] and more than 32 µg/mL in [16].
